In US20250282785A1, “PYRROLIDINONE DERIVATIVES AS INHIBITORS OF NF KAPPA B INDUCING KINASE” (priority 2022, published 2025):

Columns and labels:
[1] = test system: p-IKKα levels in L363 (NIK translocated multiple myeloma) cells; assay: Effect of compounds on p-IKKα levels in L363 cells (AlphaLISA SureFire Ultra); assay type: cell-based; settings: Homo sapiens, L-363; L363 cells, BAFF stimulated, MG132, 6 h; average of values; read-out: Assay 2 IC50
Procedure, shortened: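 L363 myeloma cells were BAFF-stimulated (250 ng/ml) overnight in DMEM/0.5% BSA, then exposed 6 h at 37° C to compound (11-point 1:3 series, 0.3% DMSO) with BAFF plus 10 uM MG132. p-IKKα (Ser 176/180) was read by AlphaLISA SureFire Ultra in lysates. IC50 came from sigmoidal fits normalized to stimulated and unstimulated controls.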

[2] = molecular target: Recombinant Human NF-Kappab-Inducing Kinase (NIK/MAP3K14) (Homo sapiens, UniProt Q99558); assay: Inhibition of auto-phosphorylation of recombinant human NIK/MAP3K14 (AlphaScreen); assay type: biochemical; settings: NIK/MAP3K14 auto-phosphorylation, 5 microM ATP, 1 nM enzyme, 2 h at 25° C.; average of values; read-out: Assay 1 IC50
Procedure, shortened: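 GST-tagged NIK (1 nM) auto-phosphorylation with 5 µM ATP in Tris pH 7.5/MgCl2 buffer, 0.7% DMSO, 2 h at 25 °C. Phospho-IKK Ser176/180 antibody detected by AlphaScreen beads. Signal normalized to full-enzyme and no-ATP controls; IC50 from sigmoidal fit of % inhibition vs log concentration.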

Recombinant Human NF-Kappab-Inducing Kinase (NIK/MAP3K14), sequence (Q99558 whole entry): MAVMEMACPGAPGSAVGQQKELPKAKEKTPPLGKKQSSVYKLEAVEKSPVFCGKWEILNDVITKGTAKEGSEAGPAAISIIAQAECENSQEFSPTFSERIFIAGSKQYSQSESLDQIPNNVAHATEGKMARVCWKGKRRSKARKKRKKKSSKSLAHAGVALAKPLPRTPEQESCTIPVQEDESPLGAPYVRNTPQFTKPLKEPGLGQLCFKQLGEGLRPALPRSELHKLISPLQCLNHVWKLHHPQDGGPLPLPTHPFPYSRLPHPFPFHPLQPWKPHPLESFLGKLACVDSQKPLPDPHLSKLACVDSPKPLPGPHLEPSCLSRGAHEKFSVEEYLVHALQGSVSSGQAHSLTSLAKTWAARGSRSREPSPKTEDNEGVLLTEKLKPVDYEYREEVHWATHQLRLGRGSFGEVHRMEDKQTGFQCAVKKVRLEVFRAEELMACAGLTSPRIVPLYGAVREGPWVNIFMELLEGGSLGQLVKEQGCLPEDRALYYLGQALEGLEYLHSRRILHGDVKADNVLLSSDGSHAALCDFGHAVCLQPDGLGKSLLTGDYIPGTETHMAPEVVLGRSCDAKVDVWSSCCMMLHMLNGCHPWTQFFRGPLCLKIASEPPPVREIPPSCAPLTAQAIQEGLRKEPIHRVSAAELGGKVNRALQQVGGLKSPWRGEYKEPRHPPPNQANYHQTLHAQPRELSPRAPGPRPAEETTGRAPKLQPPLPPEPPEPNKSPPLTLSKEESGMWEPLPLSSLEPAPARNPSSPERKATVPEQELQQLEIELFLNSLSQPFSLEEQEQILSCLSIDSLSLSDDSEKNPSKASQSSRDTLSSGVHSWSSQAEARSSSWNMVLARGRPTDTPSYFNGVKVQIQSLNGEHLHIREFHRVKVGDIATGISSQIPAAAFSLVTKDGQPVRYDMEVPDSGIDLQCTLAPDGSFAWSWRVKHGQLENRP

SMILES | IC50 [1] [µM] | IC50 [2] [µM]
CN1CC[C@@](O)(c2cc(-c3cccc(-c4cc5[nH]cnc5c(C(N)=O)n4)c3)no2)C1=O [Example 97, (R)-6-(3-(5-(3-Hydroxy-1-methyl-2-oxopyrrolidin-3-yl)isoxazol-3-yl)phenyl)-1H-imidazo[4,5-c]pyridine-4-carboxamide] | 0.1 to 0.5 | < 0.1
CN1CC[C@@](O)(c2cc(-c3cccc(-c4nc(C(N)=O)cc(C(F)(F)F)n4)c3)no2)C1=O [Example 98, (R)-2-(3-(5-(3-Hydroxy-1-methyl-2-oxopyrrolidin-3-yl)isoxazol-3-yl)phenyl)-6-(trifluoromethyl)pyrimidine-4-carboxamide] | > 0.501 | < 0.1
CN1CC[C@@](O)(c2cc(-c3cccc(-n4nc(C(N)=O)c5cc(-c6ccn(C)n6)ccc54)c3)no2)C1=O [Example 99, (R)-1-(3-(5-(3-Hydroxy-1-methyl-2-oxopyrrolidin-3-yl)isoxazol-3-yl)phenyl)-5-(1-methyl-1H-pyrazol-3-yl)-1H-indazole-3-carboxamide] | < 0.1 | < 0.1
CN1CC[C@@](O)(c2cc(-c3cccc(-c4cc(N5CC(F)(F)C5)cc(C(N)=O)n4)c3)no2)C1=O [Example 100, (R)-4-(3,3-Difluoroazetidin-1-yl)-6-(3-(5-(3-hydroxy-1-methyl-2-oxopyrrolidin-3-yl)isoxazol-3-yl)phenyl)picolinamide] | > 0.501 | < 0.1
CN1CC[C@@](O)(c2cc(-c3cccc(-n4nc(C(N)=O)c5cc(F)ccc54)c3)no2)C1=O [Example 101, (R)-5-Fluoro-1-(3-(5-(3-hydroxy-1-methyl-2-oxopyrrolidin-3-yl)isoxazol-3-yl)phenyl)-1H-indazole-3-carboxamide] | 0.1 to 0.5 | < 0.1
CN1CC[C@@](O)(c2cc(-c3cccc(-n4nc(C(N)=O)c5c4CCCC5)c3)no2)C1=O [Example 102, (R)-1-(3-(5-(3-Hydroxy-1-methyl-2-oxopyrrolidin-3-yl)isoxazol-3-yl)phenyl)-4,5,6,7-tetrahydro-1H-indazole-3-carboxamide] | > 0.501 | < 0.1
COc1ccc2c(c1)c(C(N)=O)nn2-c1cccc(-c2cc([C@]3(O)CCN(C)C3=O)on2)c1 [Example 103, (R)-1-(3-(5-(3-Hydroxy-1-methyl-2-oxopyrrolidin-3-yl)isoxazol-3-yl)phenyl)-5-methoxy-1H-indazole-3-carboxamide] | < 0.1 | < 0.1
CNc1ccc(-c2cccc(-c3cc([C@]4(O)CCN(C)C4=O)on3)c2)nc1C(N)=O [Example 104, (R)-6-(3-(5-(3-Hydroxy-1-methyl-2-oxopyrrolidin-3-yl)isoxazol-3-yl)phenyl)-3-(methylamino)picolinamide] | < 0.1 | < 0.1
CN1CC[C@@](O)(c2cc(-c3cccc(-c4ncc(NC5COC5)c(C(N)=O)n4)c3)no2)C1=O [Example 105, (R)-2-(3-(5-(3-Hydroxy-1-methyl-2-oxopyrrolidin-3-yl)isoxazol-3-yl)phenyl)-5-(oxetan-3-ylamino)pyrimidine-4-carboxamide] | < 0.1 | < 0.1
CN1CC[C@@](O)(c2cc(-c3cccc(-c4ccc(NCC5COC5)c(C(N)=O)n4)c3)no2)C1=O [Example 106, (R)-6-(3-(5-(3-Hydroxy-1-methyl-2-oxopyrrolidin-3-yl)isoxazol-3-yl)phenyl)-3-((oxetan-3-ylmethyl)amino)picolinamide] | 0.1 to 0.5 | < 0.1
CN1CC[C@@](O)(c2cc(-c3cccc(-c4ncc(NCC5COC5)c(C(N)=O)n4)c3)no2)C1=O [Example 107, (R)-2-(3-(5-(3-Hydroxy-1-methyl-2-oxopyrrolidin-3-yl)isoxazol-3-yl)phenyl)-5-((oxetan-3-ylmethyl)amino)pyrimidine-4-carboxamide] | < 0.1 | < 0.1
CN1CC[C@@](O)(c2cc(-c3cccc(-c4cc(C5CC5)c(N)c(C(N)=O)n4)c3)on2)C1=O [Example 108, (R)-3-Amino-4-cyclopropyl-6-(3-(3-(3-hydroxy-1-methyl-2-oxopyrrolidin-3-yl)isoxazol-5-yl)phenyl)picolinamide] | < 0.1 | < 0.1
CN1CC[C@@](O)(c2cc(-c3cccc(-c4nc(C(N)=O)n5ccncc45)c3)no2)C1=O [Example 109, (R)-1-(3-(5-(3-Hydroxy-1-methyl-2-oxopyrrolidin-3-yl)isoxazol-3-yl)phenyl)imidazo[1,5-a]pyrazine-3-carboxamide] | 0.1 to 0.5 | < 0.1
CN1CC[C@@](O)(c2cc(-c3cccc(-c4cnc(N)c(C(N)=O)n4)c3)no2)C1=O [Example 110, (R)-3-Amino-6-(3-(5-(3-hydroxy-1-methyl-2-oxopyrrolidin-3-yl)isoxazol-3-yl)phenyl)pyrazine-2-carboxamide] | < 0.1 | < 0.1
CN1CC[C@@](O)(c2cc(-c3cccc(-c4ncc(NC5CC5)c(C(N)=O)n4)c3)no2)C1=O [Example 111, (R)-5-(Cyclopropylamino)-2-(3-(5-(3-hydroxy-1-methyl-2-oxopyrrolidin-3-yl)isoxazol-3-yl)phenyl)pyrimidine-4-carboxamide] | < 0.1 | < 0.1
CN1CC[C@@](O)(c2cc(-c3cccc(-n4nc(C(N)=O)c5cc(C6CC6)ccc54)c3)no2)C1=O [Example 112, (R)-5-Cyclopropyl-1-(3-(5-(3-hydroxy-1-methyl-2-oxopyrrolidin-3-yl)isoxazol-3-yl)phenyl)-1H-indazole-3-carboxamide] | 0.1 to 0.5 | < 0.1
COc1cc(-c2cc(-c3cc([C@]4(O)CCN(C)C4=O)on3)c(F)cc2F)nc2c(N)ncnc12 [Example 113, (R)-3-(3-(5-(4-Amino-8-methoxypyrido[3,2-d]pyrimidin-6-yl)-2,4-difluorophenyl)isoxazol-5-yl)-3-hydroxy-1-methylpyrrolidin-2-one] | > 0.501 | < 0.1
CN1CC[C@@](O)(c2cc(-c3cccc(-c4cn(C)c(C(N)=O)n4)c3)no2)C1=O [Example 114, (R)-4-(3-(5-(3-Hydroxy-1-methyl-2-oxopyrrolidin-3-yl)isoxazol-3-yl)phenyl)-1-methyl-1H-imidazole-2-carboxamide] | > 0.501 | < 0.1
COc1cc(-c2cc(-c3cc([C@]4(O)C[C@@H](C(F)(F)F)N(C)C4=O)on3)c(F)cc2F)nc2c(N)ncnc12 [Example 115, (3R,5S)-3-(3-(5-(4-Amino-8-methoxypyrido[3,2-d]pyrimidin-6-yl)-2,4-difluorophenyl)isoxazol-5-yl)-3-hydroxy-1-methyl-5-(trifluoromethyl)pyrrolidin-2-one] | > 0.501 | > 0.501
COc1cc(-c2cc(-c3cc([C@]4(O)C[C@@H](C(F)(F)F)N(C)C4=O)on3)ccc2F)nc2c(N)ncnc12 [Example 116, (3R,5S)-3-(3-(3-(4-amino-8-methoxypyrido[3,2-d]pyrimidin-6-yl)-4-fluorophenyl)isoxazol-5-yl)-3-hydroxy-1-methyl-5-(trifluoromethyl)pyrrolidin-2-one] | > 0.501 | < 0.1
CN1CC[C@@](O)(c2cc(-c3cccc(-c4cc(C5CC5)cc(C(N)=O)n4)c3)no2)C1=O [Example 117, (R)-4-Cyclopropyl-6-(3-(5-(3-hydroxy-1-methyl-2-oxopyrrolidin-3-yl)isoxazol-3-yl)phenyl)picolinamide] | 0.1 to 0.5 | < 0.1
COc1cc(-c2cccc(-c3cc([C@]4(O)CCN(C)C4=O)on3)c2)nc2c(N)ncnc12 [Example 118, (R)-3-(3-(3-(4-Amino-8-methoxypyrido[3,2-d]pyrimidin-6-yl)phenyl)isoxazol-5-yl)-3-hydroxy-1-methylpyrrolidin-2-one] | 0.1 to 0.5 | < 0.1
COc1cc(-c2cc(-c3cc([C@@]4(O)C(=O)N(C)CC4(F)F)on3)ccc2F)nc2c(N)ncnc12 [Example 119, (R)-3-(3-(3-(4-Amino-8-methoxypyrido[3,2-d]pyrimidin-6-yl)-4-fluorophenyl)isoxazol-5-yl)-4,4-difluoro-3-hydroxy-1-methylpyrrolidin-2-one] | 0.1 to 0.5 | < 0.1
COc1cc(-c2cc(-c3cc([C@]4(O)CCN(C)C4=O)on3)ccc2F)nc2c(N)ncnc12 [Example 120, (R)-3-(3-(3-(4-Amino-8-methoxypyrido[3,2-d]pyrimidin-6-yl)-4-fluorophenyl)isoxazol-5-yl)-3-hydroxy-1-methylpyrrolidin-2-one] | > 0.501 | < 0.1
CN1CC[C@@](O)(c2cc(-c3ccc(F)c(-c4ncc(NC5COC5)c(C(N)=O)n4)c3)no2)C1=O [Example 121, (R)-2-(2-Fluoro-5-(5-(3-hydroxy-1-methyl-2-oxopyrrolidin-3-yl)isoxazol-3-yl)phenyl)-5-(oxetan-3-ylamino)pyrimidine-4-carboxamide] | 0.1 to 0.5 | < 0.1
Cc1c(-c2cccc(-c3cc([C@]4(O)CCN(C)C4=O)on3)c2)nc(C(N)=O)n1C1CC1 [Example 122, (R)-1-Cyclopropyl-4-(3-(5-(3-hydroxy-1-methyl-2-oxopyrrolidin-3-yl)isoxazol-3-yl)phenyl)-5-methyl-1H-imidazole-2-carboxamide] | > 0.501 | 0.1 to 0.5
